In publication PMC5427475, “Effect of clopidogrel on the hydroxylation and sulfoxidation of omeprazole: A single dose study in healthy human volunteers” (EXCLI Journal, 2017):
Where two headings read alike, the source gives them in different places.

Experiments:
[1] = Single-dose crossover pharmacokinetic study of omeprazole (40 mg) alone or with clopidogrel (150 mg) in healthy volunteers (CYP2C19 EM and PM), plasma LC-MS; type: in vivo, human; conditions: for AUC0-∞, % increase / Cmax, % increase / E Half-life, % increase / Tmax, % increase / Cl, % increase: OMP+CLOP vs OMP alone; for half-life: read-out: E Half-life (converted)
Experimental: A group of twelve healthy volunteers were recruited for this study (divided into two groups), and written informed consent was obtained from all participants included in the study. […] Electrocardiogram, routine lab tests including hematological, kidney and liver function tests were performed for all the volunteers. They were physically examined and their medical history was also evaluated. All volunteers were non-smokers and abstained from taking any other medicine and juices in the week prior to the study. Volunteers were served standard breakfast and lunch during the study. […] This study was conducted in accordance to “World Medical Association (WMA) declaration of Helsinki-Ethical principles for medical research involving human subjects” and its amendments. The study was approved by the ethical committee, Department of Pharmacy, University of […], Pakistan. (Application number13/EC/Pharm. Ref number 12/Pharm). It was a single dose, 2-period, 2-sequence study with 14 days washout period. […] Approximately 3 mL of blood was collected from each volunteer at 0, 0.5, 1, 2, 3, 4, 6, and 8 hr after dose administration in heparinized tubes. After centrifugation, the plasma was transferred into properly labeled eppendroff tubes and stored at a temperature of -20 °C until analysis. OMP and its metabolites were extracted from the plasma using precipitation method and were analyzed using LCMS method. The mobile phase consisted of 0.1 % formic acid in acetonitrile: 0.1 % formic acid in water (40/60 v/v) using Hichrom RP18 (150 × 3.0 mm, 3 μm UK) as a stationary phase interfaced with a LTQ Orbit rap mass spectrometer. Pantoprazole was used as an internal standard (Ahmad et al., 2015[1]). Various PK parameters were calculated using the PK Solutions software. […] The AUC0-∞ was determined by trapezoidal rule. The elimination half life was determined by using first-order equation, i.e., The apparent oral clearance (CL/F) was determined by using equation, Dose/AUC0-∞. The pharmacokinetic data was interpreted statistically using SPSS software (version 16.0; SPSS, Inc, Chicago, IL). […] P < 0.05 was considered statistically significant.

[2] = ref McEwen et al., 1999; cited from earlier work
[3] = extensive metabolizers, OMP 40 mg + CLOP 150 mg
[4] = extensive metabolizers, OMP 40 mg alone
[5] = poor metabolizers, OMP 40 mg + CLOP 150 mg
[6] = poor metabolizers, OMP 40 mg alone
[7] = human, plasma, oral, 40 mg, extensive metabolizers, OMP 40 mg alone
[8] = human, plasma, oral, 40 mg, extensive metabolizers, OMP 40 mg alone, read-out: Tmax
[9] = human, plasma, oral, 40 mg, poor metabolizers, OMP 40 mg alone
[10] = human, plasma, oral, 40 mg, poor metabolizers, OMP 40 mg alone, read-out: Tmax
[11] = human, plasma, oral, extensive metabolizers (n = 8), OMP 40 mg + CLOP 150 mg, single dose, plasma, read-out: Cmax
[12] = human, plasma, oral, extensive metabolizers, OMP 40 mg + CLOP 150 mg
[13] = human, plasma, oral, extensive metabolizers, OMP 40 mg + CLOP 150 mg, read-out: Tmax
[14] = human, plasma, oral, poor metabolizers (n = 4), OMP 40 mg + CLOP 150 mg, single dose, plasma, read-out: Cmax
[15] = human, plasma, oral, poor metabolizers, OMP 40 mg + CLOP 150 mg
[16] = human, plasma, oral, poor metabolizers, OMP 40 mg + CLOP 150 mg, read-out: Tmax
[17] = human, plasma, po, 40 mg, extensive metabolizers (n = 8), OMP 40 mg alone, single oral dose, plasma, read-out: Cmax
[18] = human, plasma, po, 40 mg, poor metabolizers (n = 4), OMP 40 mg alone, single oral dose, plasma, read-out: Cmax

AUC0-∞, % increase ([1]; extensive metabolizers)	Cmax, % increase ([1]; extensive metabolizers)	E Half-life, % increase ([1]; extensive metabolizers)	Tmax, % increase ([1]; extensive metabolizers)	AUC0-∞, % increase ([1]; poor metabolizers)	Cmax, % increase ([1]; poor metabolizers)	Tmax, % increase ([1]; poor metabolizers)	AUC(0-inf) [1, 7]	half-life [1, 7]	Tmax [1, 8]	AUC(0-inf) [1, 9]	half-life [1, 9]	Tmax [1, 10]	Cmax [1, 11]	AUC(0-inf) [1, 12]	half-life [1, 12]	Tmax [1, 13]	Cmax [1, 14]	AUC(0-inf) [1, 15]	half-life [1, 15]	Structure (SMILES)	further results
-14.22% ± 2.80	-16.23% ± 5.8	-8.30% ± 6.1	-8.23 ± 4.3%	-1.73% ± 2.38	-4.9% ± 3.61	5.20% ± 4.0	–	–	–	–	–	–	–	–	–	–	–	–	–	COc1ccc2nc([S+]([O-])Cc3ncc(CO)c(OC)c3C)[nH]c2c1 (centres unmarked) [5-OH-OMP, 5-hydroxyomeprazole]	Cmax ([1]; extensive metabolizers (n = 8), OMP 40 mg + CLOP 150 mg, single dose, plasma): 401 ± 35 ng/mL; Cmax ([1]; extensive metabolizers (n = 8), OMP 40 mg alone, single oral dose, plasma): 562 ± 53 ng/mL; AUC0-∞ [1, 3]: 1615 ± 401 ng·h/mL; E Half-life [1, 3]: 1.097 ± 0.106 h; Tmax [1, 3]: 2.49 ± 0.281 h; AUC0-∞ [1, 4]: 2203 ± 619 ng·h/mL; E Half-life [1, 4]: 1.24 ± 0.129 h; Tmax [1, 4]: 2.723 ± 0.394 h; Cmax ([1]; poor metabolizers (n = 4), OMP 40 mg + CLOP 150 mg, single dose, plasma): 373 ± 32 ng/mL; Cmax ([1]; poor metabolizers (n = 4), OMP 40 mg alone, single oral dose, plasma): 407 ± 46 ng/mL; AUC0-∞ [1, 5]: 1566 ± 90 ng·h/mL; E Half-life [1, 5]: 2.828 ± 0.188 h; Tmax [1, 5]: 3.138 ± 0.251 h; AUC0-∞ [1, 6]: 1607 ± 126 ng·h/mL; E Half-life [1, 6]: 2.588 ± 0.111 h; Tmax [1, 6]: 2.988 ± 0.311 h
–	–	–	–	–	–	–	–	–	–	–	–	–	–	–	–	–	–	–	–	COC(=O)[C@H](c1ccccc1Cl)N1CCc2sccc2C1 [CLOP, clopidogrel]	oral bioavailability [2]: less than 50%
9.33% ± 5.13	–	6.31% ± 4.31	0.043% ± 0.0204	4.11% ± 1.68	5.46% ± 2.08	-0.78% ± 0.32	4040 ± 282 ng·h/mL	1.05 ± 0.187 h	2.8 ± 0.178 h	8820 ± 778 ng·h/mL	1.58 ± 0.058 h	2.99 ± 0.411 h	1090 ± 146 ng/mL	4900 ± 620 ng·h/mL	1.13 ± 0.185 h	2.9 ± 0.228 h	1630 ± 116 ng/mL	9070 ± 861 ng·h/mL	1.51 ± 0.049 h	COc1ccc2[nH]c([S+]([O-])Cc3ncc(C)c(OC)c3C)nc2c1 (centres unmarked) [OMP, omeprazole]	drug metabolite ratio [AUC]OMP/5-OH-OMP ([1]; EM): 1.94 ±0.602; drug metabolite ratio [AUC]OMP/OMP-S ([1]; EM): 13.64 ± 2.711; drug metabolite ratio [AUC]OMP/5-OH-OMP ([1]; PM): 9.84 ± 4.543; drug metabolite ratio [AUC]OMP/OMP-S ([1]; PM): 9.85 ± 4.98; Cl (apparent oral clearance, Dose/AUC0-∞) [1, 3]: 1.94445 ± 0.356 mL/min/kg; Cl (apparent oral clearance, Dose/AUC0-∞) [1, 4]: 2.29722 ± 0.38992 mL/min/kg; Cl, % increase ([1]; extensive metabolizers): -15.42% ± 4.92; Tmax [1, 16]: 2.98 ± 0.414 h; Cmax [1, 17]: 890 ± 83 ng/mL; Cmax [1, 18]: 1410 ± 146 ng/mL; Cl (apparent oral clearance, Dose/AUC0-∞) [1, 5]: 0.88245 ± 0.125 mL/min/kg; Cl (apparent oral clearance, Dose/AUC0-∞) [1, 6]: 0.97735 ± 0.144 mL/min/kg; Cl, % increase ([1]; poor metabolizers): -9.6% ± 1.72; E Half-life, % increase ([1]; poor metabolizers): -4.73% ± 3.06
5.01% ± 1.57	8.01% ± 2.0	3.81% ± 1.70	-2.5% ± 1.18	2.32% ± 2.9	–	-3.28% ± 0.60	535 ± 58 ng·h/mL	2.37 ± 0.472 h	2.72 ± 0.278 h	1500 ± 118 ng·h/mL	3.34 ± 0.438 h	3.06 ± 0.17 h	198 ± 26 ng/mL	612 ± 70 ng·h/mL	2.48 ± 0.496 h	2.65 ± 0.255 h	431 ± 56 ng/mL	1520 ± 102 ng·h/mL	3.14 ± 0.44 h	COc1ccc2nc(S(=O)(=O)Cc3ncc(C)c(OC)c3C)[nH]c2c1 [OMP-S, omeprazole sulfone]	Tmax [1, 16]: 3 ± 0.077 h; Cmax [1, 17]: 175 ± 24 ng/mL; Cmax [1, 18]: 444 ± 53 ng/mL; E Half-life, % increase ([1]; poor metabolizers): -6.08% ± 0.96
